From PubChem BioAssay (NCI)
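Interpolation was linear, between the two tested concentrations surrounding the appropriate level; five concentrations were tested over 48 hours in 96-well plates. TGI: concentration producing complete growth inhibition.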

Columns and labels:
Assay in all cases: NCI tumour cell line growth inhibition, 48 h
[1] = system: DMS 273 small cell lung
[2] = system: DMS 114 small cell lung
[3] = system: SNB-78 CNS
[4] = system: DLD-1 colon
[5] = system: HOP-18 NSCLC
[6] = system: KM20L2 colon
[7] = system: M19-MEL melanoma
[8] = system: XF 498 CNS

With `CC1OC(OC2C(OC(=O)[C@]34CCC(C)(C)CC3C3=CCC5[C@@]6(C)C[C@H](O)[C@H](OC7OC(COC8OC(CO)C(O)C(O)C8O)C(O)C(O)C7O)[C@@](C)(C(=O)O)C6CC[C@@]5(C)C3(C)CC4)OCC(O)C2O)C(O)C(O)C1OC1OCC(O)C(O)C1O` (some centres undefined) the TGI [1] was > 100 µM, the TGI [2] was > 100 µM and the TGI [3] was > 100 µM. For the same compound, the TGI [4] was > 100 µM, the TGI [5] was > 100 µM and the TGI [6] was > 100 µM. The TGI [7] was > 100 µM.

`CO[C@H](C(=O)O[C@H]1C(=O)N2CC[C@@H]3CCC[C@H]1C32C)c1ccccc1` (some centres undefined) was tested, and the TGI [2] was > 100 µM, the TGI [3] was > 100 µM and the TGI [4] was > 100 µM. For the same compound, the TGI [6] was > 100 µM and the TGI [7] was > 100 µM.

For `COC(=O)C1CC(c2ccc(Cl)cc2)=NO1` (centres undefined), the TGI [1] was > 100 µM, the TGI [2] was > 100 µM and the TGI [3] was > 100 µM. The TGI [4] was > 100 µM, the TGI [5] was > 100 µM and the TGI [6] was > 100 µM. For the same compound, the TGI [7] was > 100 µM.

For `CN1C(=S)CSc2ccccc21`, the TGI [1] was > 100 µM, the TGI [2] was > 100 µM and the TGI [3] was > 100 µM. The TGI [8] was > 100 µM, the TGI [4] was > 100 µM and the TGI [6] was > 100 µM. For the same compound, the TGI [7] was > 100 µM.

In the case of `O=C1C(Cl)=C(N2CCN(CCOCCO)CC2)C(=O)c2ccccc21`, the TGI [1] is reported as 31.2 µM, the TGI [3] is reported as 32.3 µM and the TGI [8] is reported as 5.81 µM. It also gave a TGI [5] of 29.9 µM, a TGI [6] of 32.2 µM and a TGI [7] of 14.6 µM.

For `O=C1C[C@@H]2[C@@H](CCC23CCCC3)N1`, the TGI [1] was > 100 µM, the TGI [3] was > 100 µM and the TGI [4] was > 100 µM. For the same compound, the TGI [5] was > 100 µM, the TGI [6] was > 100 µM and the TGI [7] was > 100 µM.

`C=CCOC1CC(n2cnc3c(N)ncnc32)OC1CO` (centres undefined) was tested, and the TGI [1] was > 100 µM, the TGI [2] was > 100 µM and the TGI [8] was > 100 µM. For the same compound, the TGI [4] was > 100 µM, the TGI [6] was > 100 µM and the TGI [7] was > 100 µM.
